According to patent publication US20220184083A1, “USE OF AN AGENT CAPABLE OF INHIBITING THE ACTIVATION OF MAIT CELLS FOR THE TREATMENT OF OBESITY AND OBESITY-RELATED DISORDERS” (INSERM (INSTITUT NATIONAL DE LA SANTÉ ET DE LA RECHERCH …, priority 2019, published 2022):

Legend:
Type in all cases: in vivo
[1] = tested on: visceral adipose tissue macrophages; experiment: Frequency of M1 and M2 macrophages in visceral adipose tissue; conditions: Vαl9+/− mice, treated vs non-treated
Description: FIG. 4: Frequency of MI-macrophages (CD206−CD11c+) and M2-macrophages (CD206+CD11c−) among total macrophages and M1/M2 ratio in visceral adipose tissue from Vαl9+/− Ac-6-FP treated mice and their controls.

Vαl9^+/− mice fed HFD = experiment: ITT, OGTT and weight gain in Vαl9+/− mice on high fat diet treated with Ac-6-FP
Description: FIG. 2: Ac-6-FP treatment during HFD improved metabolic parameters. Vαl9^+/− mice fed during 6 weeks of HFD were then giving water containing 50 nm/ml of Ac-6-FP (Acetyl-6-formylpterin) (n=8) or PBS (n=7) for 8 weeks and IP injected, twice a week, 50 nm of Ac-6-FP or PBS. (A) ITT and OGTT in Vαl9^+/− Ac-6-FP-treated mice and Vαl9^+/− control mice. (B) Percentage of weight gain of Ac-6-FP-treated Vαl9^+/− mice and Vαl9^+/− control mice.

MAIT cells = experiment: Intracellular staining of MAIT cells for IL-17A in ileum and visceral adipose tissue; conditions: Vα19+/− mice, Ac-6-FP treated vs control (PBS)
Description: FIG. 3: Intra cellular staining of MAIT cells for IL-17A. Frequency of IL-17A positive MAIT cells in ileum and visceral adipose tissue from Vαl9+/− control (PBS) and Vαl9+/− Ac-6-FP treated mice.

MR1−/− mice = experiment: ITT and OGTT at 12 weeks of HFD in MR1−/− mice treated with Ac-6-FP; conditions: Ac-6-FP treated vs controls
Description: FIG. 5: Insulin Tolerance Test (ITT) and Oral Glucose Tolerance Test (OGTT) at 12 weeks of High Fat Diet (HFD) in MR1−/− Ac-6-FP treated mice and their respective controls.

CC(=O)Nc1nc2ncc(C=O)nc2c(=O)[nH]1 [Ac-6-FP, acetyl-6-formylpterin]
frequency of M1-like macrophages (pro-inflammatory, CD206−CD11c+) [1]: decreased frequency
frequency of M2-like macrophages (anti-inflammatory, CD206+CD11c−) [1]: increased frequency
insulin sensitivity (Vαl9^+/− mice fed HFD; Ac-6-FP treatment during high fat diet (HFD), obese mice): improved
metabolic parameters (ITT, OGTT, percentage of weight gain) (Vαl9^+/− mice fed HFD; Vαl9+/− mice, 6 weeks HFD, then water containing 50 nm/ml Ac-6-FP for 8 weeks plus IP 50 nm twice a week, vs PBS): improved
production of IL-17A by MAIT cells (MAIT cells; ileum): decreased production
production of IL-17A by MAIT cells (MAIT cells; visceral adipose tissue): decreased production
glucose tolerance (OGTT) (MR1−/− mice): did not have any effect
insulin sensitivity (ITT) (MR1−/− mice): did not have any effect
